Laboratory results: US4405713A, “Process for the preparation of optically active anthracycline glycosides A and B” (priority 1981, dated 1983)
In brackets after ≈: the same amount, converted by molar mass. Read-outs that look alike come from different tables or passages of the source.

Columns and labels:
[1] = system: Proteus vulgaris IAM 1025; experiment: in vitro minimum inhibitory concentration (MIC), agar streak method; format: cell-based; settings: IAM1025
[2] = system: Klebsiella pheumonia IFO 3512; experiment: as above; format: cell-based; settings: IFO3512
P388 leukemia = experiment: antitumour activity against P388 leukemia in mice, survival time; format: in vivo, male CDF1 mice; settings: i.p., days 1, 5 and 9; for Mean survival: control 10.6 ± 0.6
Description: 4-Deoxy-aclacinomycin A obtained in the present invention was tested against P388 leukemia in mice. When male CDF1 mice (5 week old) were inoculated with 10^6 of P388 leukemia cells intraperitoneally and the antibiotic was administered through the same route on days 1, 5 and 9, the survival time of the treated mice was prolonged as shown in Table 6.

[3] = system: Pseudomonas aeruginosa IFO 12689; experiment: in vitro minimum inhibitory concentration (MIC), agar streak method; format: cell-based; settings: IFO12689
Sarcina lutea IAM 1009 = experiment: as above; format: cell-based; settings: Micrococcus luteus, IAM1009
[4] = system: Bacillus subtilis IAM 1027; experiment: as above; format: cell-based; settings: IAM1027
[5] = system: Staphylococcus aureus 209P IAM 1011; experiment: as above; format: cell-based
[6] = system: Staphylococcus epidermidis IFO 12993; experiment: as above; format: cell-based; settings: IFO12993
[7] = system: Escherichia coli K-12 IAM 1264; experiment: as above; format: cell-based; settings: IAM1264
[8] = toxicity (survival of treated mice); format: in vivo
Description: All the mice treated with 100 mg/kg of 4-deoxy-aclacinomycin A, i.p., survived more than 7 days.

[9] = system: Micrococcus flavus ATCC 10240; experiment: in vitro minimum inhibitory concentration (MIC), agar streak method; format: cell-based; settings: ATCC10240

CC[C@@]1(O)C[C@H](O[C@H]2C[C@H](N(C)C)[C@H](O[C@H]3C[C@H](O)[C@H](O[C@H]4CCC(=O)[C@H](C)O4)[C@H](C)O3)[C@H](C)O2)c2c(cc3c(c2O)C(=O)c2ccccc2C3=O)[C@H]1C(=O)OC [4-Deoxy-aclacinomycin A, 4-deoxy-aclacinomycin A]
MIC ([1]; Proteus vulgaris IAM 1025, read-out: MIC): > 100 µg/mL | MIC ([2]; Klebsiella pheumonia IFO 3512, read-out: MIC): > 100 µg/mL | Increase in life span (%) (P388 leukemia; total dose 5.6 mg/Kg): 8% | Mean survival (P388 leukemia; total dose 5.6 mg/Kg): 11.5 ± 0.5 days | Increase in life span (%) (P388 leukemia; total dose 11.3 mg/Kg): 18% | Mean survival (P388 leukemia; total dose 11.3 mg/Kg): 12.5 ± 0.5 days | Increase in life span (%) (P388 leukemia; total dose 22.5 mg/Kg): 23% | Mean survival (P388 leukemia; total dose 22.5 mg/Kg): 13.0 ± 0.0 days | Increase in life span (%) (P388 leukemia; total dose 45 mg/Kg): 27% | Mean survival (P388 leukemia; total dose 45 mg/Kg): 13.5 ± 0.5 days | Increase in life span (%) (P388 leukemia; total dose 90 mg/Kg): 57% | Mean survival (P388 leukemia; total dose 90 mg/Kg): 16.5 ± 0.5 days | MIC ([3]; Pseudomonas aeruginosa IFO 12689, read-out: MIC): > 100 µg/mL | MIC (Sarcina lutea IAM 1009; Sarcina lutea IAM 1009, read-out: MIC): 0.19 µg/mL (≈ 0.239 µM) | MIC ([4]; Bacillus subtilis IAM 1027, read-out: MIC): 0.39 µg/mL (≈ 0.49 µM) | MIC ([5]; Staphylococcus aureus 209P IAM 1011, read-out: MIC): 0.78 µg/mL (≈ 0.98 µM) | MIC ([6]; Staphylococcus epidermidis IFO 12993, read-out: MIC): 0.78 µg/mL (≈ 0.98 µM) | MIC ([7]; Escherichia coli K-12 IAM 1264, read-out: MIC): > 100 µg/mL | survival of all the mice treated ([8]; 100 mg/kg, i.p.): more than 7 days | toxicity as compared with that of aclacinomycin A ([8]; statement in words): very low as compared with that of aclacinomycin A | MIC ([9]; Micrococcus flavus ATCC 10240, read-out: MIC): 0.19 µg/mL (≈ 0.239 µM)

CC[C@@]1(O)C[C@H](O[C@H]2C[C@H](N(C)C)[C@H](O[C@H]3C[C@@H]4OC5CC(=O)C(C)OC5O[C@@H]4[C@H](C)O3)[C@H](C)O2)c2c(cc3c(c2O)C(=O)c2ccccc2C3=O)[C@H]1C(=O)OC (stereo partly drawn) [4-Deoxy-aclacinomycin B, 4-deoxy-aclacinomycin B]
MIC ([1]; Proteus vulgaris): > 100 µg/mL | MIC ([2]; Klebsiella): > 100 µg/mL | MIC ([3]; Pseudomonas aeruginosa): > 100 µg/mL | MIC (Sarcina lutea IAM 1009): 0.39 µg/mL (≈ 0.491 µM) | MIC ([4]; Bacillus subtilis): 6.25 µg/mL (≈ 7.87 µM) | MIC ([5]; Staphylococcus aureus): 3.13 µg/mL (≈ 3.94 µM) | MIC ([6]; Staphylococcus epidermidis): 3.13 µg/mL (≈ 3.94 µM) | MIC ([7]; Escherichia coli): > 100 µg/mL | MIC ([9]; Micrococcus flavus): 0.39 µg/mL (≈ 0.491 µM)
